In the case of `CCOC(=O)COC1CCN(C(=O)[C@H](C)NC(=O)c2ccc(C(N)=NO)cc2)CC1`, the melting point was 212 to 213 °C. Compound `CCCCCCCCCCC[C@H](CC(=O)N[C@@H](CO)CCCN)OCc1ccccc1` has a melting point of 47 to 48 °C. `CC(C)c1ccc2c(c1)c(Sc1ccccc1C(C)C)c(CC(C)(C)C(=O)O)n2Cc1ccc(Cl)cc1` showed a melting point of 142 to 143 °C. For `CCCCNS(=O)(=O)CC(O)(CCCC)C(N)C(O)CC1CCCCC1` (configuration not stated), the melting point was 164 to 165 °C. Compound `CCC(CC)c1ccc(Cl)c2nc3n(c12)CC(=O)N3c1cnc(N(C)C)cc1C` has a melting point of 222 to 224 °C. `CCN(CC)C(C)CN1c2cc(Cl)ccc2S[C@H]2[C@@H](O)[C@H](O)[C@@H](CO)O[C@H]21` (some centres not stated) showed a melting point of 185 to 188 °C. Work on `Cc1nc(-c2cnn(-c3c(Cl)cc(C(F)(F)F)cc3Cl)n2)[nH]c1S(=O)(=O)Cl` yielded a melting point of 254 to 255 °C. Work on `N#Cc1c(N)c(C#N)c(-c2ccccc2)c2c1CCC2` yielded a melting point of 148 to 149 °C. Compound `CCOC(=O)Cc1cc(O)nc(N(CC)CC)n1` has a melting point of 98 to 100 °C. `CC(C)C(c1ccc(CC(N)=O)cc1)n1ccnc1` (configuration not stated) showed a melting point of 244 °C. Work on `CC(=O)OCc1ccc(Sc2ccccc2C(=O)N(C)C)c([N+](=O)[O-])c1` yielded a melting point of 117 to 118 °C. With `COc1cc(F)ccc1OCC#Cc1ccc(Cl)nc1` the melting point was 86 to 87 °C. In the case of `COc1ccccc1N1CCN(CCn2c(=O)c3cscc3n(CCC(=O)O)c2=O)CC1`, the melting point was 186 to 188 °C. `O=C(Nc1ccc([N+](=O)[O-])cc1)C(F)F` gave a melting point of 188 to 189 °C. With `CCS(=O)(=O)c1ccc(-c2cc(C(F)(F)F)ccc2OCC(=O)O)cc1C(F)(F)F` the melting point was 174 to 175 °C. For `Cc1oc(-c2ccccc2)nc1C(O)c1cc2cc(Br)ccc2o1` (configuration not stated), the melting point was 152 to 154 °C. Compound `O=c1[nH]c(=O)n2c3c(cccc13)CCC2CO` (configuration not stated) has a melting point of 205 to 207 °C. `CC(C)C(=O)C(=CC(=O)c1ccc(Cl)cc1)n1cncn1` gave a melting point of 128 to 130 °C. For `O=P1(C2CCCC2)c2ccccc2CN1c1ccccc1` (configuration not stated), the melting point was 123 to 125 °C. In the case of `Nc1cc(C(=O)O)cc(OCc2ccccn2)c1C(=O)c1ccccc1`, the melting point was 212 to 213 °C. With `FC(F)C(F)(F)Sc1nc(-c2ccccc2)c(-c2ccccc2)n1COCc1ccccc1` the melting point was 70 to 70.5 °C. Work on `Nc1cccc2c1CCNC2` yielded a melting point of 153 to 154 °C. In the case of `CC(C)OCC(=O)CC1c2ccccc2C(=O)N1c1ccc2ccc(Cl)nc2n1` (configuration not stated), the melting point was 200 °C. `O=c1oc(OCCBr)c(Cl)c2ccccc12` showed a melting point of 183 to 185 °C. `CC(C)(C)c1cc(-c2nc3n(c2SC#N)CCS3)cc(C(C)(C)C)c1O` gave a melting point of 178 to 179 °C. With `O=C(O)CCc1cn(Cc2ccc(OCc3ccoc3)cc2)cc1-c1ccccc1` the melting point was 110 to 111 °C. `CCOC(=O)C1=C(C(=O)O)CC(C(=O)O)([N+](=O)[O-])C=C1` (configuration not stated) gave a melting point of 189 to 191 °C. With `COc1ccccc1SCCCCCCCCCC(=O)O` the melting point was 65 to 66 °C. For `Cc1nc(-c2ccc(S(N)(=O)=O)c(F)c2)c(-c2ccc(-c3cscn3)cc2)o1`, the melting point was 192 to 194 °C. Work on `COc1cc(OCC(=O)N(C)C)c(/C=C/C(=O)c2ccc(C(=O)O)cc2)cc1-c1cccs1` yielded a melting point of 197 to 198 °C. Work on `COc1ccc(N2C(=O)[C@H](O)[C@@H]2c2ccccc2)cc1` yielded a melting point of 211 to 212 °C. `COc1ccc2c(c1)C(=O)c1ccc(C3=NCCN3)cc1S2(=O)=O` showed a melting point of 220 to 224 °C. `COc1ccccc1NC(=O)Nc1ccc(CC(=O)O)cc1C` showed a melting point of 260 to 264 °C. `OCc1cn(-c2ccc(Cl)c(C(F)(F)F)c2)cn1` showed a melting point of 148 to 153 °C. Work on `COC(=O)C1=C(Cc2ccccc2)C(=O)NCC1` yielded a melting point of 104 to 108 °C. Work on `CCCCNC(=O)CP(=O)(O)O` yielded a melting point of 115 to 125 °C. Work on `COc1ccc2nc(C)n(-c3ccccc3)c2n1` yielded a melting point of 114 to 116 °C. `COc1c(O)cnc(C)c1C` gave a melting point of 274 to 276 °C. For `CC(C)(C)OC(=O)NCc1ccc(CN2CCC(c3ccccc3)CC2)cc1`, the melting point was 73 to 74 °C. In the case of `O=C(NC(=O)c1ccccc1Cl)Nc1ccc(-c2ccc(Cl)cc2)cn1`, the melting point was 228 to 231 °C. `CC(C)(C)CCC(=O)c1ccc2cc(-c3ccc4c(Br)c(OCC(=O)O)ccc4c3)sc2c1` gave a melting point of 246 to 247 °C. `NC(=O)c1cccc(C2(O)C3CCC2CN(Cc2ccccc2)C3)c1` (configuration not stated) showed a melting point of 210 to 214 °C. Work on `CC(=O)NCc1nc(-c2ccccc2)c(-c2ccccc2)o1` yielded a melting point of 58 to 60 °C. Compound `CC(=O)OC1CSC(Oc2ccc(-c3ccncc3)nc2Cl)C(OC(C)=O)C1OC(C)=O` (configuration not stated) has a melting point of 179 °C. With `NC(=O)C(Nc1ccccc1C1CC1)c1c(Cl)cccc1Cl` (configuration not stated) the melting point was 196 °C. With `O=C1NC(CO)(CO)CO1` the melting point was 107 to 108 °C. For `O=C(NC(=O)c1ccccc1Cl)Nc1cc(Cl)c(OC(F)(F)C(F)Cl)cc1Cl` (configuration not stated), the melting point was 158 to 160 °C. With `CCc1nc2c(C)c(S(=O)(=O)N(C)C)c(C)nc2[nH]1` the melting point was 179 to 182 °C. `CC(=O)NCCCCc1ccc(C(=O)C(C)Cl)cc1` (configuration not stated) showed a melting point of 66 to 67 °C. In the case of `NC(=O)/C=C/c1cc2c(Oc3ccc(Cl)cc3)cncc2s1`, the melting point was 176 to 178 °C. With `O=C(Nc1cccc(C(=O)O)c1)NC1C(=O)N(CC(=O)N2CCCC2)c2ccccc2N(C2CCCCC2)C1=O` (configuration not stated) the melting point was 275 to 276 °C. With `N#Cc1ccccc1C1CNC([N+](=O)[O-])CCN1` (configuration not stated) the melting point was 101 °C. Work on `CCCCCCOc1cc(-c2ccc3cc4c(cc3c2)C(C)(C)CCC4(C)C)ccc1C(=O)O` yielded a melting point of 105 to 106 °C. In the case of `Oc1ccc(O)c2c1CC(O)C(O)C2` (configuration not stated), the melting point was 221 to 224 °C. For `Cc1ccccc1-c1nc(-c2cccc(Cl)c2)n(C)n1`, the melting point was 86 to 88 °C. In the case of `Cc1ccccc1C(=O)c1c(C)nn(C)c1O`, the melting point was 82 to 83 °C. `CCOC(=O)C(N=Nc1sc(C)c(C)c1C(=O)c1ccccc1)NC(=O)CCl` (configuration not stated) showed a melting point of 123 to 125 °C. In the case of `FC(F)(F)c1cccc(Nc2ccccc2-c2n[nH]c(=S)s2)c1`, the melting point was 140 to 142 °C. With `CCOc1ccc(C(=O)Nc2c(Cl)cncc2Cl)c2c3cc(Cl)ccc3n(Cc3ccccc3)c12` the melting point was 221 to 223 °C. For `CCCCOc1c(NC(C)(C)CC)c(=O)c1=O`, the melting point was 56 to 57 °C. `OCC1OC(n2cnc3c(NN4CCCC4)nc(I)nc32)C(O)C1O` (configuration not stated) showed a melting point of 216 to 217 °C. In the case of `CCNC(=O)c1cc(Cl)ccc1[Si](C)(C)C`, the melting point was 104 to 105 °C. `CC(C)N=CCCC1(C(N)=O)c2ccccc2-c2ccccc21` gave a melting point of 149 to 155 °C. With `O=c1ccc2c(n1CCc1ccccc1)CCCC2NCCc1ccc(Cl)c(Cl)c1` (configuration not stated) the melting point was 120 to 122 °C. `CCOC(=O)COc1coc(C)cc1=O` gave a melting point of 95 to 98 °C. For `FC(F)(F)c1ccc2nc(CN3CCN(c4ccc(Cl)cc4)CC3)cn2c1`, the melting point was 128 to 135 °C. Work on `CN1c2ccccc2CC1COc1ccc(CC2SC(=O)NC2=O)cc1` (configuration not stated) yielded a melting point of 46.1 to 48.9 °C. With `O=C(Nc1nnn(CC(F)(F)F)n1)C(c1ccccc1)c1ccccc1` the melting point was 146 to 148 °C. With `Cc1nc2n(C)c(C)cn2c(=O)c1CCN1CCC(n2ccc3ccccc32)CC1` the melting point was 166 °C. `Cn1c(C(F)(F)F)cc(=O)n(-c2ccc3snc(C(C)(C)C(=O)NS(C)(=O)=O)c3c2)c1=O` gave a melting point of 264 to 265 °C. Work on `CN(C)C=C(C#N)C=NN(C)C` yielded a melting point of 130 to 134 °C. `COc1cc(Nc2c(C#N)cnc3cc4cc(OCCn5nccn5)c(OC)cc4cc23)c(Cl)cc1Cl` gave a melting point of 285 to 287 °C. In the case of `COC(=O)C(Cc1ccccc1)NC(=O)C(N)(CC(=O)O)NC(=O)C(C)C` (configuration not stated), the melting point was 168 to 170 °C. Compound `O=C(NCc1ccc(Cl)cc1)c1cn2c(CCO)cc3cc(CC4CCOCC4)cc(c1=O)c32` has a melting point of 204 to 206 °C. Work on `CC1CCN(C2C3=CC(OC3=O)C3C(CC4(C)OC4C2O)OC(=O)C3C)CC1` (configuration not stated) yielded a melting point of 210 °C. With `CC(=O)OCc1csc(Nc2ccc(Br)cn2)n1` the melting point was 201 to 202 °C. With `Nc1ccc(OS(=O)(=O)c2ccc(NCCO)cc2)cc1[N+](=O)[O-]` the melting point was 180 °C. In the case of `CC(C)(C)c1ccc(-c2cc3ccc(C(=O)O)cc3s2)cc1`, the melting point was 318 °C. For `COc1cc(C(=O)O)ccc1Cc1cn(C)c2ccc(NC(=O)NC3CCCC3)cc12`, the melting point was 203 to 206 °C. For `Cc1cccc(C)c1NC(=O)CS(C)=O` (configuration not stated), the melting point was 112 to 114 °C. Work on `Cc1onc(-c2ccc(Cl)cc2)c1CCC(=O)O` yielded a melting point of 187 to 188 °C. `NCC(c1ccccc1)C(CN)c1ccccc1` (configuration not stated) gave a melting point of 144 to 145 °C. Compound `CCCc1nc(C)n2c(=O)[nH]nc2c1Cc1ccc(-c2ccccc2C#N)cc1` has a melting point of 196 °C. `Cc1oc(-c2ccc3ccccc3c2)nc1COc1ccc(COc2ncccc2CC(=O)O)cc1` gave a melting point of 155 to 156 °C. `CCc1c(-c2ccc(OCc3ccccc3)cc2)c2c(C(=O)N(C)C)cc3cccc1n32` showed a melting point of 92 to 95 °C. `O=[N+]([O-])c1cccc(Nc2nccc(-c3ccncc3)n2)c1` showed a melting point of 282 to 284 °C. `Cc1cc2cc(C(=O)OCc3ccccc3)n(CC(=O)OC(C)(C)C)c2cc1C` showed a melting point of 133 to 134 °C. Work on `CN1CCC(c2c[nH]c3ccc(Cn4cncn4)cc23)C1` (configuration not stated) yielded a melting point of 59 to 61 °C. `C#CCSC(=NC(=O)OC)NC(=O)Nc1ccc(C)cc1` gave a melting point of 161 to 162 °C. `CCN(CC)c1nc(C)nc(N)n1` showed a melting point of 125 to 127 °C. Work on `COc1cccc(Cl)c1C1SC(=O)NC1=O` (configuration not stated) yielded a melting point of 195 to 197 °C. In the case of `CC(C)c1nc(-c2ccccc2)n(-c2ccc(F)cc2)c1C=O`, the melting point was 159 to 161 °C. For `CNC(=O)n1nc(Oc2c(Cl)cc(C(F)(F)F)cc2Cl)c(Cl)c1C`, the melting point was 125 to 127 °C. In the case of `C[C@H]1CN(c2c(F)cc3c(=O)c(C(=O)O)cn(CCF)c3c2F)C[C@H]1NC(=O)OC(C)(C)C` (relative stereo), the melting point was 217 to 219 °C. With `COc1cc2nc(N3CCN(c4ccnc(Oc5ccccc5)n4)CC3)nc(N)c2cc1OC` the melting point was 253 to 254 °C. For `N#CC1CN1C(=O)c1ccc(-c2ccccc2)cc1` (configuration not stated), the melting point was 104 to 106 °C. In the case of `CCSc1cc(C=NO)c(Cl)cn1`, the melting point was 128 to 130 °C. Compound `COCC(=O)Nc1nc2ccc(F)cc2s1` has a melting point of 139 to 140 °C. With `COc1cccc(CC(=O)O)c1OCCCc1cn(-c2ccc(C(F)(F)F)nn2)nc1C(C)C` the melting point was 92 to 93 °C. For `COc1ccc(C=CC(=O)c2c(OC)cc(OC)cc2OP(=O)(O)O)cc1`, the melting point was 71 to 73 °C. Work on `COC(=O)C(=CNc1ccc(O)cc1)C(=O)C=Cc1ccc2ccccc2c1` yielded a melting point of 191 to 192 °C. For `CCOc1ccc2c(c1)CCN(C(=O)OCc1ccccc1)C21CCC(C(=O)O)(C(=O)O)CC1`, the melting point was 184 to 185 °C.

Reference: a melting point compilation (Tetko et al.; mined from patent text by program, amines drawn as free bases though some values may be those of a salt)
